PubChem BioAssay AID248 (DTP/NCI, 2004)
Values joined by “and” are separate entries in the source; they are usually repeats but may differ in a detail not shown here. Identical values can stand only once. Toxic doses and inconclusive results are not listed. No stated cut-off is given here; in the data, active means T/C of 150% or more; inactive means T/C below 125%.

Tested on: L1210 leukemia ip in BDF1 mice, survival T/C
Experiment: NCI In Vivo Anticancer Drug Screen. Data for tumor model L1210 Leukemia (intraperitoneal) in B6D2F1 (BDF1) mice
Details: endpoint: mean survival time, higher = longer survival
Summary of the method: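 Transplantable tumor model; survival measured in treated vs vehicle control mice. Value = treated/control.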

Measured: T/C

O=CC(NC(=O)N(CCCl)N=O)C(O)C(O)C(O)CO (configuration not stated)
inactive: dose: 10.0 mg/kg/injection, schedule: Q01DX009 (ip), vehicle: other 107 % of control
active: dose: 2.0 mg/kg/injection, schedule: Q01DX009 (ip), vehicle: carboxymethylcellulose (CMC) 169 % of control | dose: 2.0 mg/kg/injection, schedule: Q01DX009 (ip), vehicle: other 163 % of control | dose: 2.0 mg/kg/injection, schedule: Q01DX009 (ip), vehicle: saline 172 % of control | dose: 3.0 mg/kg/injection, schedule: Q01DX009 (ip), vehicle: carboxymethylcellulose (CMC) 186 % of control | dose: 3.0 mg/kg/injection, schedule: Q01DX009 (ip), vehicle: other 180 % of control | dose: 3.0 mg/kg/injection, schedule: Q01DX009 (ip), vehicle: saline 259 % of control | dose: 4.4 mg/kg/injection, schedule: Q01DX009 (ip), vehicle: carboxymethylcellulose (CMC) 204 % of control | dose: 4.4 mg/kg/injection, schedule: Q01DX009 (ip), vehicle: other 290 % of control | dose: 4.4 mg/kg/injection, schedule: Q01DX009 (ip), vehicle: saline 308 % of control | dose: 4.5 mg/kg/injection, schedule: Q01DX009 (ip), vehicle: saline 154 % of control | dose: 6.0 mg/kg/injection, schedule: Q01DX001 (ip), vehicle: carboxymethylcellulose (CMC) 152 % of control | dose: 6.0 mg/kg/injection, schedule: Q01DX001 (ip), vehicle: other 154 % of control | dose: 6.7 mg/kg/injection, schedule: Q01DX009 (ip), vehicle: carboxymethylcellulose (CMC) 318 % of control | dose: 6.7 mg/kg/injection, schedule: Q01DX009 (ip), vehicle: other 151 % of control | dose: 6.7 mg/kg/injection, schedule: Q01DX009 (ip), vehicle: saline 471 % of control | dose: 6.8 mg/kg/injection, schedule: Q01DX009 (ip), vehicle: saline 207 % of control | dose: 9.0 mg/kg/injection, schedule: Q01DX001 (ip), vehicle: carboxymethylcellulose (CMC) 208 % of control and 213 % of control | dose: 9.0 mg/kg/injection, schedule: Q01DX001 (ip), vehicle: other 155 % of control | dose: 9.0 mg/kg/injection, schedule: Q01DX001 (ip), vehicle: saline 336 % of control | dose: 10.0 mg/kg/injection, schedule: Q01DX009 (ip), vehicle: carboxymethylcellulose (CMC) 281 % of control | dose: 10.0 mg/kg/injection, schedule: Q01DX009 (ip), vehicle: saline 152 % of control and 243 % of control | dose: 13.0 mg/kg/injection, schedule: Q01DX001 (ip), vehicle: carboxymethylcellulose (CMC) 273 % of control and 302 % of control | dose: 13.0 mg/kg/injection, schedule: Q01DX001 (ip), vehicle: other 272 % of control | dose: 13.0 mg/kg/injection, schedule: Q01DX001 (ip), vehicle: saline 211 % of control and 424 % of control | dose: 18.0 mg/kg/injection, schedule: Q01DX001 (ip), vehicle: saline 505 % of control | dose: 20.0 mg/kg/injection, schedule: Q01DX001 (ip), vehicle: carboxymethylcellulose (CMC) 455 % of control and 531 % of control | dose: 20.0 mg/kg/injection, schedule: Q01DX001 (ip), vehicle: other 575 % of control | dose: 20.0 mg/kg/injection, schedule: Q01DX001 (ip), vehicle: saline 296 % of control and 486 % of control | dose: 26.0 mg/kg/injection, schedule: Q01DX001 (ip), vehicle: saline 505 % of control | dose: 30.0 mg/kg/injection, schedule: Q01DX001 (ip), vehicle: carboxymethylcellulose (CMC) 282 % of control and 537 % of control | dose: 30.0 mg/kg/injection, schedule: Q01DX001 (ip), vehicle: other 506 % of control | dose: 30.0 mg/kg/injection, schedule: Q01DX001 (ip), vehicle: saline 284 % of control and 617 % of control | dose: 44.0 mg/kg/injection, schedule: Q01DX001 (ip), vehicle: carboxymethylcellulose (CMC) 162 % of control | dose: 45.0 mg/kg/injection, schedule: Q01DX001 (ip), vehicle: carboxymethylcellulose (CMC) 266 % of control | dose: 45.0 mg/kg/injection, schedule: Q01DX001 (ip), vehicle: other 153 % of control

NC(CSCc1ccccc1)CSCc1ccccc1
inactive: dose: 25.0 mg/kg/injection, schedule: Q01DX009 (ip), vehicle: saline 101 % of control | dose: 50.0 mg/kg/injection, schedule: Q01DX009 (ip), vehicle: saline 100 % of control | dose: 100.0 mg/kg/injection, schedule: Q01DX009 (ip), vehicle: saline 105 % of control

CCCCc1cc(O)c2c(c1O)C(=O)c1ccccc1C2=O
inactive: dose: 100.0 mg/kg/injection, schedule: Q01DX001 (ip), vehicle: saline sonified 91 % of control | dose: 100.0 mg/kg/injection, schedule: Q01DX009 (ip), vehicle: saline sonified 97 % of control | dose: 200.0 mg/kg/injection, schedule: Q01DX001 (ip), vehicle: saline sonified 86 % of control | dose: 200.0 mg/kg/injection, schedule: Q01DX009 (ip), vehicle: saline sonified 102 % of control | dose: 400.0 mg/kg/injection, schedule: Q01DX001 (ip), vehicle: saline sonified 94 % of control | dose: 400.0 mg/kg/injection, schedule: Q01DX009 (ip), vehicle: saline sonified 96 % of control

O=P(CCO)(c1ccccc1)c1ccccc1
inactive: dose: 100.0 mg/kg/injection, schedule: Q04DX003 (ip), vehicle: saline with Tween-80 112 % of control | dose: 200.0 mg/kg/injection, schedule: Q04DX003 (ip), vehicle: saline with Tween-80 101 % of control
